The results in this text go back to patent publication US5482954A, “Signal transduction inhibitor triazole and diazole compounds” (priority 1994, dated 1996).

Read-outs that look alike come from different tables or passages of the source.

Data set [1] has as its system CHOm5 cells. Description: Carbachol-stimulated 45Ca2+ influx. More on the design: % Inhibition of 45Ca2+ Influx into CHOm5 Cells: concentration or dose not given beside the values. In kind it is cell-based, Chinese hamster. The procedure: Calcium influx was determined using two methods. The first method involved the use of ^45 Ca^2+, while the second method utilized a fluorescent intracellular calcium chelator, Fura-2. The method using Fura-2 is semi-quantitative and is preferred for kinetic analysis and screening whereas the ^45 Ca^2+ method is quantitative.
CHOm5 cells in monolayer culture were washed free of serum-containing media and incubated with either carbachol or the calcium ionophore A23187 (from Molecular Probes, Eugene, Oreg., USA) in the presence of ^45 Ca^2+ and defined buffer (E2 medium with 0.1 mM MgCl2 and 1.0 mM CaCl2). After incubation for 5 min, the radioactive buffer was rapidly and repeatedly washed off with media containing LaCl3, a competitor of calcium efflux. The cell monolayer was solubilized and the calcium uptake was determined by scintillation counting.
Stimulated uptake of radiolabelled calcium was measured as described above. The abbreviations CTL and CC are control and carbachol-stimulated calcium influx values. respectively.

Data set [2] relates to A2058 melanoma cells. Put plainly: Reversibility of inhibition of tumor cell motility. The data set is classed as cell-based, human. The settings on record: for activity at 1 µg/mL / activity at 5 µg/mL: Homo sapiens, read-out: Motility (% of control). Here is the method: The cell motility assay has been described. See, Stracke et al., Biochem. Biophys. Res. Comm., 146:339-345 (1987). Cells from the A2058 human melanoma line which was maintained in subconfluent culture were harvested with trypsin-EDTA, and were allowed to recover for 1 hr at room temperature. Cells from the 5R H-ras transformed (diploid) rat embryo fibroblast line were harvested with 2 mM EDTA in PBS without divalent cations. Cells were resuspended in serum-free media containing 0.1% BSA. This DMEM/0.1% BSA was used as the control for all subsequent assays. The assays were performed in triplicate using a 48-well chemotaxis chamber with 8μ Nucleopore, type IV collagen-coated filters. The chambers were incubated at 37° C. for 4 hr, stained and placed onto glass slides with the original cell side up so that the cell pellet could be wiped from the surface. Cells that had migrated through the pores were trapped between glass and membrane and could be quantitated by laser densitometry.
Reversibility of cell motility which had been inhibited by compound 1 was determined by removing the compound from the incubation media. Thus, A2058 melanoma cells were cultured for 24 hr in standard media (DMEM/10% FCS), washed twice with saline, and cultured with DMEM/10% FCS with (+) or without (-) compound 1 for 24 hr. Cells were then washed and the treatments were reversed. The resulting cells are classified as "treated" (±, run as a control to test cell response following the incubation and washing steps), "washout" (±, run to evaluate reversibility), and "control". Control cells were washed and fed with standard media alone at each change point. Table E provides the results expressed as a percent of control cell motility at two concentrations of compound 1.

The subject of data set [3] is A2058 cells. Put plainly: Colony formation (soft agar). In kind it is cell-based, human. The procedure:
Colony formation: Compound 1 was evaluated at three concentrations for inhibition of colony formation in both the A2058 and OVCAR3 cell lines. Colony number was determined in triplicate and compared to the vehicle control run on each 24 well plate to provide a percent. Colonies greater than 60 cells were counted at 100× under phase contrast. […] In a second study, selected compounds were evaluated for their effect on density-independent growth of the A2058 cell line in soft agar. Percent inhibition was determined over triplicate experiments involving three log molar concentrations of the test compound.

Data set [4] is described as follows: Side effects in phase I clinical study. In kind it is in vivo, human. The settings on record: oral, to date. The text has this: Seven patients with solid tumor metastasis are undergoing treatment via oral administration of compound 1 under the FDA approved phase I clinical study. […] PT# is patient number. Response is the sum of the products of bidirectional measurements.

Data set [5] relates to MDA-231 human breast cancer cells. Put plainly: AMF-stimulated cell motility. The data set is classed as cell-based. The note with it: overnight exposure; data not shown.
Data set [6] deals with OVCAR3 cells. Put plainly: Type IV collagen-stimulated motility. In kind it is cell-based, human. The note with it: data not shown.

As to `NC(=O)c1nnn(Cc2cc(Cl)c(C(=O)c3ccc(Cl)cc3)c(Cl)c2)c1N` [Compound 1], the IC50 (commonly the point on the concentration scale where inhibition reaches its midpoint) in data set [1] (Cricetulus griseus, FIG. 12, carbachol) turned out to be 0.935 ± 0.018 µM. In addition, the “% Inhibition of 45Ca2+ Influx into CHOm5 Cells” value in data set [1] (Table I, carbachol-stimulated) is on record as 74%. Further, in data set [2] (A2058, 1 μg/mL (+/-)), the activity at 1 µg/mL came out at 97%. Further, the activity at 1 µg/mL in data set [2] (A2058, 1 μg/mL (-/+)) was 59%. In data set [2] (A2058, 5 μg/mL (+/-)), the activity at 5 µg/mL worked out at 94%. The activity at 5 µg/mL in data set [2] (A2058, 5 μg/mL (-/+)) came to 27%. Moreover, the “reversibility of motility inhibition” value in data set [2] (removal of the compound from the culture medium) is recorded as “could be reversed by removal of the compound from the culture medium”. The “COLONY FORMATION (% OF CONTROL)” value in data set [3] (Table H, soft agar) was 11.1 ± 5 % OF CONTROL. For the same compound, the “Colony Formation (% of Control)” value in data set [3] (Table K) is given as 11.1 ± 5 % of Control. Moreover, the “inhibition of colony formation” value in data set [3] (concentrations as low as 0.2 μM) is listed as “significant inhibitory effects”. Moreover, in data set [4], the “abnormalities of blood cellular composition” value is “no abnormalities of blood cellular composition”; the “bone marrow depression (white cell counts)” value was “do not show any bone marrow depression”; the “liver or kidney function abnormalities” value is reported as “do not show any liver or kidney function abnormalities”; the “neurological toxicity, hair loss or electrolyte imbalances” value is given as “no neurological toxicity, hair loss or electrolyte imbalances”. Moreover, in data set [5], the “motile response to AMF” value is on record as “inhibited”. The “motility due to type IV collagen stimulation” value in data set [6] was “inhibited motility”.
